Here are results for 1 compound from patent US20230026277A1, “COMPOSITION FOR PREVENTION, ALLEVIATION, OR TREATMENT OF RESPIRATORY DISEASE” (MICROX CO., LTD., priority 2019, published 2023).

Holding throughout (format): in vivo
Experiment [1] deals with neutrophils and eosinophils introduced into the airway. Kind of experiment: Inflammatory cells (neutrophils and eosinophils) in bronchoalveolar lavage fluid, Diff-Quik staining, asthma-induced mice. How it is done:
Eight-week-old female […] mice (Orient Bio Korea Inc., Korea) having no certain pathogen were accommodated in an aseptic laminar-flow cabinet, and bred by supplying a standard solid feed ad libitum. When the following experiment was performed, the mice were made to correspond to 7- to 8-weeks old, and all laboratory animals were managed according to the protocol approved by the Institutional Animal Care and Use Committee of the Chonbuk National University Medical School.
(§1) Also, on days 21 and 28 from the experimental starting date, the mice were put into a plastic box (Plexiglas (Rohm & Haas, Philadelphia, Pa.) exposure chamber; 24.5 cm×40.5 cm×15.0 cm), and 1.5% ovalbumin was evaporated using an ultrasonic nebulizer (NE-U12; output 0.8 mL/min; Omron, Japan), and injected into the box for 30 minutes so that the mice inhaled the evaporated ovalbumin (secondary challenge).
After the mice were anesthetized, a thin tube was inserted into the airway, and a piston process was repeated using a syringe filled with 0.2 mL of physiological saline to obtain a bronchoalveolar lavage fluid. The bronchoalveolar lavage fluid obtained through this piston process was stored at −70° C. when it was not immediately used in the experiments.
50 μL of the bronchoalveolar lavage fluid obtained in Experimental Method 2 was put on a slide used for the cytospin, and centrifuged for 30 minutes. Thereafter, Diff-Quik staining was performed, and inflammatory cells (neutrophils and eosinophils) were observed using a microscope.
Preparation Example 3 (α,δ-NA-L-G) or α,δ N-acetyl-D-glutamine (α,δ-NA-D-G) was orally administered to the asthma-induced mice of Experimental Method 1 daily from the experimental starting date at a concentration of 50, 100, or 200 μg/kg/day, and the cell numbers of neutrophils and eosinophils introduced into the airway through the method of Experimental Method 3 were measured. The results are shown in A and B of FIG. 3. In this case, the cell numbers were measured at 10 hours (neutrophils) or 48 hours (eosinophils) after a secondary challenge.

In experiment [2] the test system is p-cPLA and p-p38 proteins. The experiment can be described thus: Western blot of p-cPLA and p-p38 in lung tissue of asthma-induced mice. How it is done: as §1
A tissue was extracted from each of the mice manufactured in Experimental Method 1, and finely ground to a cell level. Thereafter, the cells were lysed in a cell lysis buffer containing a protease inhibitor to obtain a cell lysate. The cell lysate was centrifuged to obtain protein. Then, an equivalent amount of the proteins obtained from the cells were loaded on an SDS-PAGE gel and electrophoresed. The proteins present in the electrophoresed gel were transferred to a PVDF membrane. […] The PVDF membrane was washed three times with a TBS-T buffer, and visualized and quantified using an ECL Western blotting detection reagent. […]
Small interfering RNA (siRNA; hereinafter referred to as “MKP-1 siRNA”) against RNA encoding an MKP-1 protein, and control siRNA strands were purchased from SANTA CRUZ (USA). […] An effect of the MKP-1 siRNA interference was determined by measuring an expression level of the MKP-1 protein in the lung tissue through Western blot analysis. […]

The test system of another experiment is NF-κB and TNF-α. The experiment can be described thus: NF-κB (Western blot) and TNF-α (ELISA) in asthma-induced mice. How it is done:
as §1
A level of cytokines in the bronchoalveolar lavage fluid obtained in Experimental Method 2 was measured using an ELISA kit. Here, ELISA kits specifically manufactured for TNF-α, IL-4, IL-5, and IL-13 were used.
A tissue was extracted from each of the mice manufactured in Experimental Method 1, and finely ground to a cell level. Thereafter, the cells were lysed in a cell lysis buffer containing a protease inhibitor to obtain a cell lysate. The cell lysate was centrifuged to obtain protein. Then, an equivalent amount of the proteins obtained from the cells were loaded on an SDS-PAGE gel and electrophoresed. The proteins present in the electrophoresed gel were transferred to a PVDF membrane. The PVDF membrane was washed, and added to a blocking buffer in which 5% skim milk was included in a TBS-T buffer, and incubated at room temperature. Then, the PVDF membrane was incubated at room temperature with an antibody diluted 1:1,000 in a TBS-T buffer containing 3% BSA. Then, the PVDF membrane was washed with a TBS-T buffer, and incubated at room temperature for an hour with a dilute solution containing HRP-bound IgG. The PVDF membrane was washed three times with a TBS-T buffer, and visualized and quantified using an ECL Western blotting detection reagent.
Here, antibodies specific to elastin, caspase-3, collagen, MKP-1, p-cPLA, p-p38, NF-κB(p65), CK2α, GAPDH, or β-actin were used in the Western blot.
Specifically, the secondary challenge (ovalbumin injection) was performed according to the method described above in Experimental Method 1, and the lungs were extracted after an hour, and then measured according to the method described above in Experimental Method 7. The results are shown in A of FIG. 9. Also, the level of TNF-α corresponding to an NK-κB-dependent cytokine was measured by ELISA according to the method described above in Experimental Method 4. The results are shown in B of FIG. 9. […]
The secondary challenge (ovalbumin injection) was performed according to the method described above in Experimental Method 1, and the lungs were extracted after 30 or 60 minutes, and then measured according to the method described above in Experimental Method 7. […] Also, the level of TNF-α corresponding to an NK-κB-dependent cytokine was measured by ELISA according to the method described above in Experimental Method 4. […]
On the technique in general: Immunoblotting shows a protein as a band on a membrane.

In the case of `CC(=O)NC(=O)CC[C@H](NC(C)=O)C(=O)O` [Preparation Example 3, 2,5-diacetamido-5-oxopentanoic acid], the “inflow of the neutrophils and eosinophils into the airway” value in experiment [1] (asthma-induced mice, oral daily 50, 100 or 200 μg/kg/day, neutrophils 10 hours, eosinophils 48 hours after secondary challenge, FIG. 3) was “very effectively inhibited”. Besides, in experiment [1] (asthma-induced mice, oral daily, from a concentration of 50 μg/kg/day, FIG. 3A), the “inhibition of neutrophils, compared to the eosinophils” value is “very effectively inhibited the neutrophils”. For the same compound, the “cell numbers of the neutrophils and eosinophils” value in experiment [1] (experiment [5-6], together with siRNA specific to MKP-1, FIG. 12) was “increased”. For the same compound, the “cell numbers of neutrophils and eosinophils” value in experiment [1] (experiment [5-6], without MKP-1 siRNA, FIG. 12) is listed as “decreased”. For the same compound, the “levels of the p-cPLA and p-p38 proteins” value in experiment [2] (lung tissue, oral daily 200, 500 or 1,000 μg/kg/day, 10 and 30 minutes after secondary challenge, FIG. 7) is given as “decreased depending on the concentration”. Besides, the “phosphorylation levels of cPLA2 and p38” value in experiment [2] (with MKP-1 siRNA treatment, same conditions as [5-1], FIG. 8) is “increased”. In addition, the “effect for reducing the levels of NF-κB and TNF-α” value in the experiment with NF-κB and TNF-α (400 μg/kg/day with siRNA specific to MKP-1, FIG. 9) is listed as “not observed”. Besides, the “levels of NF-κB and TNF-α” value in the experiment on NF-κB and TNF-α (oral daily 400 μg/kg/day, an hour after secondary challenge, FIG. 9A and B) is “decreased”.
